From PubChem BioAssay (NCI)
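Where inhibition never reached the appropriate level, the endpoint shown equals the highest concentration tested. Otherwise, values were interpolated linearly from a five-concentration, 48-hour dose response in 96-well plates. The concentration for full growth arrest is given as TGI.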

Tests used:
Assay in all cases: growth of human tumour cells (NCI), 48 h
U251 CNS = tested on: U251 CNS
MDA-MB-231 breast = tested on: MDA-MB-231 breast
OVCAR-8 ovarian = tested on: OVCAR-8 ovarian
MCF7 breast = tested on: MCF7 breast
HS 578T breast = tested on: HS 578T breast
RXF 393 renal = tested on: RXF 393 renal
MOLT-4 leukemia = tested on: MOLT-4 leukemia
UO-31 renal = tested on: UO-31 renal
MDA-N = tested on: MDA-N
SR leukemia = tested on: SR leukemia
HCT-15 colon = tested on: HCT-15 colon
HCT-116 colon = tested on: HCT-116 colon
SF-295 CNS = tested on: SF-295 CNS
SK-OV-3 ovarian = tested on: SK-OV-3 ovarian
ACHN renal = tested on: ACHN renal
PC-3 prostate = tested on: PC-3 prostate
CCRF-CEM leukemia = tested on: CCRF-CEM leukemia
NCI-H23 lung = tested on: NCI-H23 lung
NCI-H460 lung = tested on: NCI-H460 lung
SNB-19 CNS = tested on: SNB-19 CNS
RPMI-8226 leukemia = tested on: RPMI-8226 leukemia
IGROV1 ovarian = tested on: IGROV1 ovarian
K-562 leukemia = tested on: K-562 leukemia
DU-145 prostate = tested on: DU-145 prostate
SK-MEL-28 melanoma = tested on: SK-MEL-28 melanoma
SNB-75 CNS = tested on: SNB-75 CNS
M14 melanoma = tested on: M14 melanoma
A549 NSCLC = tested on: A549 NSCLC
LOX IMVI melanoma = tested on: LOX IMVI melanoma
MDA-MB-435 = tested on: MDA-MB-435
HL-60(TB) leukemia = tested on: HL-60(TB) leukemia
HOP-62 NSCLC = tested on: HOP-62 NSCLC
CAKI-1 renal = tested on: CAKI-1 renal
BT-549 breast = tested on: BT-549 breast
SN12C renal = tested on: SN12C renal
COLO 205 colon = tested on: COLO 205 colon
OVCAR-4 ovarian = tested on: OVCAR-4 ovarian
SF-539 CNS = tested on: SF-539 CNS
UACC-257 melanoma = tested on: UACC-257 melanoma
SK-MEL-5 melanoma = tested on: SK-MEL-5 melanoma
HT29 colon = tested on: HT29 colon
KM12 colon = tested on: KM12 colon
NCI/ADR-RES ovarian = tested on: NCI/ADR-RES ovarian
UACC-62 melanoma = tested on: UACC-62 melanoma
SW-620 colon = tested on: SW-620 colon
TK-10 renal = tested on: TK-10 renal
EKVX NSCLC = tested on: EKVX NSCLC
OVCAR-3 ovarian = tested on: OVCAR-3 ovarian
OVCAR-5 ovarian = tested on: OVCAR-5 ovarian
SF-268 CNS = tested on: SF-268 CNS
MALME-3M melanoma = tested on: MALME-3M melanoma
T-47D breast = tested on: T-47D breast
SK-MEL-2 melanoma = tested on: SK-MEL-2 melanoma
NCI-H522 lung = tested on: NCI-H522 lung
A498 renal = tested on: A498 renal
HOP-92 NSCLC = tested on: HOP-92 NSCLC
786-0 renal = tested on: 786-0 renal
NCI-H226 lung = tested on: NCI-H226 lung

Measured: TGI

COc1ccc(-c2c(C#N)c(NC(=S)NC(=O)c3ccccc3)nc3c2CCCC3)cc1OC
89 µM: T-47D breast
70.4 µM: EKVX NSCLC
68.1 µM: RXF 393 renal
not listed: SK-MEL-2 melanoma | NCI-H522 lung | A498 renal | HOP-92 NSCLC | 786-0 renal | NCI-H226 lung
> 100 µM: all other assays above

O=C(O)C1C(C(=O)O)C(C(=O)O)C1C(=O)O (centres undefined)
not listed: HL-60(TB) leukemia
> 100 µM: all other assays above
